Experimental data published in PubChem BioAssay AID1963861 (Molecular Pharmacology Branch, DTP, NCI, 2024).
Values joined by “and” are separate entries in the source; they are usually repeats but may differ in a detail not shown here. Equal values may be shown once.

Test system: 885724-159-R-J1-PDC KRAS PDC multicell spheroid viability
Test: Anticancer human tumor 885724-159-R-J1-PDC patient-derived pancreatic adenocarcinoma cell line growth inhibition [KRAS2]
Details: for viability, T/C: stronger effect = lower value
Procedure, shortened: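 KRAS-mutant tumor cells were grown as spheroids with HUVEC endothelial cells and human MSCs as stroma. Targeted agents were tested alone and with KRAS pathway inhibitors. Doses started at or near clinical Cmax, or 10 microM, descending half-log.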

[1] = curve of first compound, second compound 0.1 µM
[2] = curve of first compound, second compound 0.316 µM
[3] = curve of first compound, second compound 1 µM
[4] = curve of first compound, second compound 3.16 µM
[5] = curve of first compound, second compound 10 µM
[6] = second compound 0.1 µM, first compound 0.000316 µM
[7] = second compound 0.1 µM, first compound 0.001 µM
[8] = second compound 0.1 µM, first compound 0.00316 µM
[9] = second compound 0.1 µM, first compound 0.01 µM
[10] = second compound 0.1 µM, first compound 0.0316 µM
[11] = second compound 0.1 µM, first compound 0.1 µM
[12] = second compound 0.316 µM, first compound 0.000316 µM
[13] = second compound 0.316 µM, first compound 0.001 µM
[14] = second compound 0.316 µM, first compound 0.00316 µM
[15] = second compound 0.316 µM, first compound 0.01 µM
[16] = second compound 0.316 µM, first compound 0.0316 µM
[17] = second compound 0.316 µM, first compound 0.1 µM
[18] = second compound 1 µM, first compound 0.000316 µM
[19] = second compound 1 µM, first compound 0.001 µM
[20] = second compound 1 µM, first compound 0.00316 µM
[21] = second compound 1 µM, first compound 0.01 µM
[22] = second compound 1 µM, first compound 0.0316 µM
[23] = second compound 1 µM, first compound 0.1 µM
[24] = second compound 3.16 µM, first compound 0.000316 µM
[25] = second compound 3.16 µM, first compound 0.001 µM
[26] = second compound 3.16 µM, first compound 0.00316 µM
[27] = second compound 3.16 µM, first compound 0.01 µM
[28] = second compound 3.16 µM, first compound 0.0316 µM
[29] = second compound 3.16 µM, first compound 0.1 µM
[30] = second compound 10 µM, first compound 0.000316 µM
[31] = second compound 10 µM, first compound 0.001 µM
[32] = second compound 10 µM, first compound 0.00316 µM
[33] = second compound 10 µM, first compound 0.01 µM
[34] = second compound 10 µM, first compound 0.0316 µM
[35] = second compound 10 µM, first compound 0.1 µM
[36] = second compound 0.1 µM, first compound 0.316 µM
[37] = second compound 0.1 µM, first compound 1 µM
[38] = second compound 0.316 µM, first compound 0.316 µM
[39] = second compound 0.316 µM, first compound 1 µM
[40] = second compound 1 µM, first compound 0.316 µM
[41] = second compound 1 µM, first compound 1 µM
[42] = second compound 3.16 µM, first compound 0.316 µM
[43] = second compound 3.16 µM, first compound 1 µM
[44] = second compound 10 µM, first compound 0.316 µM
[45] = second compound 10 µM, first compound 1 µM
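Further: spheroids exposed to agents for 7 days before readout.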

SMILES | IC50 [1] [nM] | IC50 [2] [nM] | IC50 [3] [nM] | IC50 [4] [nM] | IC50 [5] [nM] | viability, T/C [8] [%] | viability, T/C [9] [%] | viability, T/C [10] [%] | viability, T/C [11] [%] | viability, T/C [14] [%] | viability, T/C [15] [%] | viability, T/C [16] [%] | viability, T/C [17] [%] | viability, T/C [20] [%] | viability, T/C [22] [%] | viability, T/C [23] [%] | viability, T/C [28] [%] | viability, T/C [29] [%] | viability, T/C [34] [%] | viability, T/C [35] [%] | also measured
CN(C)C/C=C/C(=O)Nc1cc2c(Nc3ccc(F)c(Cl)c3)ncnc2cc1O[C@H]1CCOC1 + CC1OCC2(CCN(c3cnc(Sc4ccnc(N)c4Cl)c(N)n3)CC2)C1N | > 100 | > 100 | > 100 | > 100 | > 100 | 105 | 89.4 | 71.8 | 68 | 90.7 | 81.3 | 78.6 | 71.5 | 136 | 105 | 89.2 | 67.1 | 62.8 | 104 | 92 | viability, T/C [6]: 112%; viability, T/C [7]: 105%; viability, T/C [12]: 103%; viability, T/C [13]: 102%; viability, T/C [18]: 150%; viability, T/C [19]: 144%; viability, T/C [21]: 121%; viability, T/C [24]: 88.1%; viability, T/C [25]: 88%; viability, T/C [26]: 77.8%; viability, T/C [27]: 72.8%; viability, T/C [30]: 147%; viability, T/C [31]: 149%; viability, T/C [32]: 140%; viability, T/C [33]: 116%
CCN1CCN(Cc2ccc(Nc3ncc(F)c(-c4cc(F)c5nc(C)n(C(C)C)c5c4)n3)nc2)CC1 + CC1OCC2(CCN(c3cnc(Sc4ccnc(N)c4Cl)c(N)n3)CC2)C1N | > 1000 | > 1000 | > 1000 | > 1000 | > 1000 | 88.2 | 94.5 | 78 | 74.3 | 80 | 76.3 | 71.6 | 71.2 | 82.7 | 71.4 | 63.5 | 68.7 | 61.5 | 63.2 | 59.6 | viability, T/C [36]: 79.8%; viability, T/C [37]: 76.9%; viability, T/C [38]: 81.2%; viability, T/C [39]: 81%; viability, T/C [21]: 77.5%; viability, T/C [40]: 75.5%; viability, T/C [41]: 73.7%; viability, T/C [26]: 73.8%; viability, T/C [27]: 73%; viability, T/C [42]: 68.1%; viability, T/C [43]: 71%; viability, T/C [32]: 70.9%; viability, T/C [33]: 68.1%; viability, T/C [44]: 66%; viability, T/C [45]: 63.2%
O=C(c1cc(Cc2n[nH]c(=O)c3ccccc23)ccc1F)N1CCN(C(=O)C2CC2)CC1 |  |  |  |  |  |  |  |  |  |  |  |  |  |  |  |  |  |  |  |  | viability, T/C (compound 0.0316 µM): 104% [middle of 5 runs]; viability, T/C (compound 0.1 µM): 106% [middle of 5 runs]; viability, T/C (compound 0.316 µM): 105% [middle of 5 runs]; viability, T/C (compound 1 µM): 106% [middle of 5 runs]; viability, T/C (compound 3.16 µM): 101% [middle of 5 runs]; viability, T/C (compound 10 µM): 82.5% [middle of 5 runs]; IC50 (curve of compound): > 10000 nM
CC1OCC2(CCN(c3cnc(Sc4ccnc(N)c4Cl)c(N)n3)CC2)C1N (centres undefined) |  |  |  |  |  |  |  |  |  |  |  |  |  |  |  |  |  |  |  |  | viability, T/C (compound 0.0316 µM): 99.7% and 101% and 102%; viability, T/C (compound 0.1 µM): 92.4% [middle of 19 runs]; viability, T/C (compound 3.16 µM): 71.4% [middle of 20 runs]; IC50 (compound alone, run of 08/19/2021): > 10000 nM; IC50 (compound alone, run of 08/26/2021): > 10000 nM; IC50 (compound alone, run of 09/02/2021): > 10000 nM; IC50 (curve of compound): > 10000 nM
CC1OCC2(CCN(c3cnc(Sc4ccnc(N)c4Cl)c(N)n3)CC2)C1N (centres undefined) + COc1cc2nc(C)nc(NC(C)c3cc(N)cc(C(F)(F)F)c3)c2cc1OC1CCOC1 | > 10000 | > 10000 | > 10000 | > 10000 | < 31.6 |  |  | 90 | 84.8 |  |  | 93.4 | 82.7 |  | 83.4 | 82.5 | 76.5 | 73.1 | 22.7 | 21.7 | viability, T/C [36]: 76.7%; viability, T/C [37]: 67.1%; viability, T/C (second compound 0.1 µM, first compound 3.16 µM): 62.1%; viability, T/C (second compound 0.1 µM, first compound 10 µM): 53.7%; viability, T/C [38]: 73.2%; viability, T/C [39]: 67.6%; viability, T/C (second compound 0.316 µM, first compound 3.16 µM): 57.2%; viability, T/C (second compound 0.316 µM, first compound 10 µM): 54.7%; viability, T/C [40]: 70%; viability, T/C [41]: 62.7%; viability, T/C (second compound 1 µM, first compound 3.16 µM): 57%; viability, T/C (second compound 1 µM, first compound 10 µM): 51.4%; viability, T/C [42]: 69.6%; viability, T/C [43]: 59%; viability, T/C (second compound 3.16 µM, first compound 3.16 µM): 55.1%; viability, T/C (second compound 3.16 µM, first compound 10 µM): 51.6%; viability, T/C [44]: 19.5%; viability, T/C [45]: 13.1%; viability, T/C (second compound 10 µM, first compound 3.16 µM): 13.5%; viability, T/C (second compound 10 µM, first compound 10 µM): 5.33%
CCN1CCN(Cc2ccc(Nc3ncc(F)c(-c4cc(F)c5nc(C)n(C(C)C)c5c4)n3)nc2)CC1 + COc1cc2nc(C)nc(NC(C)c3cc(N)cc(C(F)(F)F)c3)c2cc1OC1CCOC1 | > 1000 | > 1000 | > 1000 | > 1000 | < 3.16 | 88.8 | 89.7 | 84.2 | 80.7 | 96.3 | 86.2 | 79.9 | 79 | 90 | 78.6 | 73.2 | 76 | 63 | 28.3 | 36.6 | viability, T/C [36]: 80.7%; viability, T/C [37]: 86.1%; viability, T/C [38]: 75.2%; viability, T/C [39]: 76.6%; viability, T/C [21]: 86.9%; viability, T/C [40]: 72.4%; viability, T/C [41]: 80.8%; viability, T/C [26]: 80.3%; viability, T/C [27]: 91.6%; viability, T/C [42]: 71.5%; viability, T/C [43]: 73.1%; viability, T/C [32]: 38.2%; viability, T/C [33]: 35.9%; viability, T/C [44]: 17.6%; viability, T/C [45]: 7.18%
Cn1ncnc1[C@H]1c2n[nH]c(=O)c3cc(F)cc(c23)N[C@@H]1c1ccc(F)cc1 + CC1OCC2(CCN(c3cnc(Sc4ccnc(N)c4Cl)c(N)n3)CC2)C1N | > 100 | > 100 | > 100 | > 100 | > 100 | 85.2 | 87.9 | 78.5 | 78.7 | 78.2 | 79.1 | 71.8 | 69.7 | 71.4 | 69.2 | 73.6 | 62.5 | 58.8 | 61.7 | 61.4 | viability, T/C [6]: 84.8%; viability, T/C [7]: 86.1%; viability, T/C [12]: 76.4%; viability, T/C [13]: 78%; viability, T/C [18]: 78.6%; viability, T/C [19]: 74.5%; viability, T/C [21]: 68.5%; viability, T/C [24]: 70.1%; viability, T/C [25]: 72.6%; viability, T/C [26]: 69.8%; viability, T/C [27]: 67%; viability, T/C [30]: 62.7%; viability, T/C [31]: 65.5%; viability, T/C [32]: 64.8%; viability, T/C [33]: 59.9%
